In patent US12018281B2, “Cardiomyocyte maturation promoter” (Kyoto University, priority 2018, dated 2024):

Tested on: cardiomyocytes derived from double knock-in human iPS cell lines (EmGFP at TNNI1, mCherry at TNNI3)
Assay: TNNI3-mCherry reporter expression by anti-mCherry immunostaining and high contents screening (Experimental Example 1)
Assay type: cell-based
Settings: 1 μM test compound added on 3rd and 6th culture days, measured on 8th culture day; Alexa 647 (anti-mCherry); average of n=3; control well (no addition) 797
Protocol: (§1) For detection of cardiomyocyte maturation, double knock-in human iPS cell lines, in which reporter protein sequences, EmGFP (Sequence Number 1) and mCherry (Sequence Number 2) were inserted into gene loci for TNNI1 and TNNI3, respectively, were prepared (the human iPS cells were prepared from episomal vector (loaded gene; OCT3/4, KLF4, SOX2, L-MYC, LIN28, mouse p53DD) using PBMC (LP_167, Sample ID:20130318) purchased from CTL (reference literature; Okita K, et al. Stem Cells. 2012 Nov. 29. doi: 10.1002/stem.1293)).
(§2) The maintenance culture of the above-mentioned reporter iPS cell lines was carried out by a conventional method (Okita K, et al. Stem Cells. 2012 Nov. 29. doi: 10.1002/stem.1293).
For differentiation induction into cardiomyocytes, the reporter iPS cell lines were treated with 0.5×TrypLE select (Life Technologies, diluted in ½ with 0.5 mM EDTA/PBS) for 4 to 5 minutes, and the cells were exfoliated using a cell scraper (IWAKI), and then dissociated into the single cell by pipetting. The medium was removed by centrifugation (1,000 rpm, 5 min), and the obtained cells were seeded on a bioreactor (ABLE) by 1×10^7 cells per 30 mL of the bioreactor, and then cultured in a medium prepared by adding 1% L-glutamine, transferrin 150 μg/mL, ascorbic acid 50 μg/mL (Sigma), monothioglycerol 4×10^−4 M, 10 μM Rock inhibitor (Y-27632), 2 ng/mL BMP4 (R&D) and 0.5% Matrigel (Growth Factor Reduced) to a medium after removal of solution C from StemFit AK02 (AJINOMOTO AK02, 400 mL of solution A and 100 mL of B solution, total 500 mL), at 37° C., under 5% oxygen condition (55 rpm, stirred suspension culture method) to form embryoid bodies (0 day).
Next day (1st day), 9 μL (final concentration 3 ng/mL) of […], 15 μL (final concentration 5 ng/mL) of 10 μg/mL bFGF and […] (final concentration 10 ng/mL) of 10 μg/mL BMP4 were added to the bioreactor, and the cells were cultured at 37° C. for additional 2 days, under 5% oxygen condition.
Then (3rd day), the obtained embryoid bodies were collected in a 50 mL centrifuge tube, and then subjected to centrifugation (200 g, 1 min). The medium was removed, and the embryoid bodies were cultured in a medium prepared by adding 1% L-glutamine, transferrin 150 μg/mL, ascorbic acid 50 μg/mL (Sigma), monothioglycerol 4×10^−4 M, 10 ng/mL VEGF, 1 μM IWP-3, 0.6 μM dorsomorphin and 5.4 μM SB431542 to a medium after removal of solution C from StemFit AK02 (AJINOMOTO AK02, 400 mL of solution A and 100 mL of B solution, total 500 mL), at 37° C. for 3 days, under 5% oxygen condition (55 rpm, stirred suspension culture method).
Then (6th day), the bioreactor was left to stand to precipitate the embryoid bodies, and 80 to 90% of the medium was removed. A medium prepared by adding 1% L-glutamine, transferrin 150 μg/mL, ascorbic acid 50 μg/mL (Sigma), monothioglycerol 4×10^−4 M and 5 ng/mL VEGF to a medium after removal of solution C from StemFit AK02 (AJINOMOTO AK02, 400 mL of solution A and 100 mL of B solution, total 500 mL) was added to the bioreactor so that the total volume became 30 mL, and the embryoid bodies were cultured for 8 days, at 37° C., under 5% oxygen condition (55 rpm, stirred suspension culture method). During the culture, the medium was replaced with a medium under the same conditions every 2 to 3 days.
14th Day after the start of the differentiation induction, the embryoid bodies were treated with 2 mg/mL collagenase type I (Sigma) for 2 hr, and then with 0.25% trypsin/EDTA (Invitrogen) for 10 min. 50% FBS/IMDM (Thermo Fisher Science) was added thereto, and the embryoid bodies were dissociated into the single cell by pipetting, and then subjected to centrifugation (1,000 rpm, 5 minutes). […]

SMILES | average fluorescent intensity (at 1 μM)
COc1ccc(/C=C\c2cc(OC)c(OC)c(OC)c2)cc1O [Example No. 1, 2-methoxy-5-((Z)-2-(3,4,5-trimethoxyphenyl)vinyl)phenol] | 1381
COc1cccc(-c2cc3ccc(N(C)C)cc3c(N)n2)c1 [Example No. 6, 3-(3-methoxyphenyl)-N7,N7-dimethylisoquinoline-1,7-diamine] | 1305
Clc1ccc(CCc2nc3cc(-c4ccco4)cnc3[nH]2)cc1 [Example No. 4, 2-(2-(4-chlorophenyl)ethyl)-6-(2-furyl)-3H-imidazo[4,5-b]pyridine] | 1125
COC(=O)c1c(C)[nH]c(C)c1C(=O)c1ccccc1Cc1ccccc1 [Example No. 7, methyl 4-(2-benzylbenzoyl)-2,5-dimethyl-1H-pyrrole-3-carboxylate] | 1294
Nc1ccc(-c2nc3cc(-c4nc5cc(N)ccc5[nH]4)ccc3[nH]2)cc1 [Example No. 8, 2′-(4-aminophenyl)-1H,1′H-2,5′-bibenzimidazol-5-amine] | 1150
CC[C@]1(O)C[C@H]2CN(CCc3c([nH]c4ccccc34)[C@@](C(=O)OC)(c3cc4c(cc3OC)N(C=O)[C@H]3[C@@](O)(C(=O)OC)[C@H](OC(C)=O)[C@]5(CC)C=CCN6CC[C@]43[C@@H]65)C2)C1 [Example No. 3, (2′beta)-22-oxovincaleukoblastine] | 1710
COc1ccc(C[C@H](NC(=O)[C@H](C)NC(=O)CN2CCOCC2)C(=O)N[C@@H](Cc2ccccc2)C(=O)[C@]2(C)CO2)cc1 [Example No. 5, 4,5-anhydro-1,2-dideoxy-4-methyl-2-((N-(morpholin-4-ylacetyl)-L-alanyl-O-methyl-L-tyrosyl)amino)-1-phenyl-L-threo-pent-3-ulose] | 1791
CCn1nnc2cc(COC(=O)Nc3sc(-c4ccc(C)cc4OC)nc3C)ccc21 [Example No. 2, (1-ethyl-1H-benzotriazol-5-yl)methyl (2-(2-methoxy-4-methylphenyl)-4-methyl-1,3-thiazol-5-yl)carbamate] | 1331

Tested on: embryoid bodies/cardiomyocytes derived from double knock-in human iPS cell lines (EmGFP at TNNI1, mCherry at TNNI3)
Assay: mCherry expression in TNNI1+ cells by flow cytometry (Experimental Example 2)
Assay type: cell-based
Settings: 40 nM, 10th to 16th day of differentiation, controls 7.4 (no addition), 10.2 (0.1% DMSO)
Protocol: as §1, §2
For differentiation induction into cardiomyocytes, the reporter iPS cell lines were treated with 0.5×TrypLE select (Life Technologies, diluted in ½ with 0.5 mM EDTA/PBS) for 4 to 5 minutes, and the cells were exfoliated using a cell scraper (IWAKI), and then dissociated into the single cell by pipetting. […]

SMILES | mCherry+ (%)
CCn1nnc2cc(COC(=O)Nc3sc(-c4ccc(C)cc4OC)nc3C)ccc21 [Example No. 2, (1-ethyl-1H-benzotriazol-5-yl)methyl (2-(2-methoxy-4-methylphenyl)-4-methyl-1,3-thiazol-5-yl)carbamate] | 36.1%
